Reference: US10130638B2, “Prevention of adverse effects caused by CD3 specific binding domains” (AMGEN RESEARCH (MUNICH) GMBH, priority 2010, dated 2018)
“Also recorded” adds a separate entry of the source.

Tests used:
[1] = test system: patients treated with blinatumomab; assay: Dexamethasone prophylaxis to prevent neurological adverse events during blinatumomab treatment; assay type: in vivo, human; settings: Patient 108-010, trial 103-104, DLBCL; as other patients (20 mg dexamethasone 12 h and 1 h before) plus 100 mg prednisolone one hour before start of infusion
Experimental: Besides the therapeutic use of dexamethasone to mitigate neurological adverse events, dexamethasone was also used as prophylaxis in order to prevent neurological adverse events.
(§1) Each of the following 5 patients in trial 103-104 (all with DLBCL) were treated with blinatumomab continuous infusion at 5 μg/m2/d for the 1st week, then 15 μg/m2/d for the 2nd week, and then 60 μg/m2/d for the remaining treatment period that could an additional 2-6 weeks.

[2] = cited from earlier work
DLBCL patients = assay: Phase I trial in DLBCL patients: glucocorticoid cohorts, dose-limiting toxicities (DLT); assay type: in vivo, human; settings: for Safety assessment of cohort: DLBCL cohorts, antibody 5/15/60 μg/m2/d with glucocorticoid medication
Experimental: A Phase I clinical trial was performed in patients with various B-NHL including DLBCL to evaluate the CD19×CD3 bispecific antibody construct in DLBCL patients. Patients were treated for 4-8-weeks by continuous i.v. administration of the antibody with the following step-wise dosing regimen: first week at 5 μg/m^2/d, second week at 15 μg/m^2/d and for the remaining treatment period at 60 μg/m^2/d.
Two cohorts each with 6 DLBCL patients were enrolled. The two cohorts solely differed by the dose and schedule of the glucocorticoid medication administered at the beginning of the antibody infusion for mitigation of adverse events.
Out of the twelve patients, 5 were male and 7 female. The median age was 57 years (range from 24 to 78 years). Patients had received a median of 4 prior regimens (range from 2-6). All patients had been exposed to rituximab. Eight of the 12 patients had undergone ASCT. International prognostic index (IPI) at screening ranged from 1 to 3 with a median of 2.

[3] = test system: patients with B cell malignancies; settings: cited from earlier work
[4] = test system: malignant CD19 positive lymphocytes; assay: Tumour response to blinatumomab in patients given dexamethasone prophylaxis; assay type: in vivo, human
From the text: By “complete response” is intended an absence of clinically detectable disease with normalization of any previously abnormal imaging studies such as radiographic studies. Such a response preferably persists for at least 4 to 8 weeks, sometimes 6 to 8 weeks or more than 8, 10, 12, 14, 16, 18 or 20 weeks or longer, following treatment according to the invention. Alternatively, an improvement in the disease may be categorized as being a partial response.
Detailed remission and response definitions for NHL patients are used according to Cheson et al., 1999, J Clin Oncol. April; 17(4):1244
By “partial response” is intended at least about a 50% decrease in all measurable tumor burden (i.e., the number of malignant cells present in the patient, or the measured bulk of tumor masses) in the absence of new lesions and persisting for 4 to 8 weeks or more than 8, 10, 12, 14, 16, 18 or 20 weeks or longer. A “complete response” does, however, not necessarily indicate that a disease has been cured, since a patient may relapse. However, if so, the patient can again be treated with a composition comprising a CD19×CD3 bispecific antibody as described herein.
as §1

patients with B-NHL = assay: Neurological/psychiatric adverse events under blinatumomab continuous infusion; assay type: in vivo, human
Experimental: For the clinical trials in connection with the application of a CD19×CD3 bispecific single chain antibody for the treatment of tumorous mass of lymph node tissue and/or extranodal lymphoma caused by DLBCL, the present inventors had to develop a treatment regime which was efficient and would be well tolerated by most of the patients. To this end, the present inventors applied a step-wise application of a CD19×CD3 bispecific single chain antibody in that 5/15/60 μg/m^2/24 h was administered to patients. […] Also contemplated in the step-wise administration of a CD19×CD3 bispecific single chain antibody is a treatment regime using two of the dosages, such as 5/15 μg/m^2/24 h, 5/60 μg/m^2/24 h, or 15/60 μg/m^2/24 h for the duration of the patient's treatment. The appropriate dosage can be selected by the clinician on the basis of efficacy, tolerability and safety with a minimum of adverse effects in the patient.

lymphoma target cells = settings: cited from earlier work
[5] = non-Hodgkin's lymphoma patients

C[C@]12C=CC(=O)C=C1CC[C@@H]1[C@@H]2[C@@H](O)C[C@@]2(C)[C@H]1CC[C@]2(O)C(=O)CO [Prednisolone]
Discontinuation due to neurological/psychiatric adverse events [1]: did not have to discontinue | Biologic half-life [2]: 18-36 hrs | Safety assessment of cohort (DLBCL patients): considered safe | DLT (DLBCL patients; prednisolone DLBCL cohort: 100 mg prednisolone 1 hour prior to start, antibody 5/15/60 μg/m2/d): just one DLT (reversible CNS event grade 3)

C[C@@H]1C[C@H]2[C@@H]3CCC4=CC(=O)C=C[C@]4(C)[C@@]3(F)[C@@H](O)C[C@]2(C)[C@@]1(O)C(=O)CO [Dexamethasone]
Safety assessment of cohort (DLBCL patients): considered safe | DLT (DLBCL patients; prophylactic dexamethasone cohort: 3×8 mg at start of infusion or dose increase, 3×6 mg or 3×4 mg on following 2 days, first two patients): one of the first two patients having a DLT | DLT (DLBCL patients; “early dexamethasone” schedule: 20 mg at −12 to −6 hours and −1 hour, 3×8 mg during following 2 days, total of 5 DLBCL patients): no DLT was observed

C[C@H]1C[C@@H]2[C@H]([C@@H](O)C[C@@]3(C)[C@H]2CC[C@]3(O)C(=O)CO)[C@@]2(C)C=CC(=O)C=C12 [Methylprednisolone]
Biologic half-life [2]: 18-36 hrs

Blinatumomab
Patients with early neurological reaction (confusion, ataxia, speech disorder, disorientation) ([3]; escalating doses as bolus infusions, B cell malignancies, retrospective analysis): 7 out of 22 | Cytokine release ([3]; patient with B-CLL, 20 minute-infusions of 3 and 10 microgram, WO 99/54440): release of TNF, IL-6 and IL-8 has been found | Tumour response ([4]; DLBCL patients with “early dexamethasone” schedule, Phase I): objective responses have been observed | Tumour response ([4]; Patient 155-001, relapsed ALL, blinatumomab 15 μg/m2/d 16 days, dexamethasone prophylaxis 8 mg): complete remission | Tumour response ([4]; patient with ALL, blinatumomab 15 μg/m2/d, dexamethasone prophylaxis days 1-3): complete remission | Tumour response of the lymphoma ([4]; trial 103-104, DLBCL, blinatumomab 5/15/60 μg/m2/d, 20 mg dexamethasone prophylaxis, one patient per block): objective response; also recorded: complete remission | Adverse effects, in particular neurological/psychiatric events, with step-wise application (patients with B-NHL; DLBCL patients, step-wise 5/15/60 μg/m2/24 h): reduced in number, ameliorated and even prevented | Neurological adverse events (patients with B-NHL; Patient 109-036, follicular lymphoma, starting day 11, four days after step from 5 to 60 μg/m2/d): neurological adverse events (tremor and apraxia) | Neurological adverse events (patients with B-NHL; Patient 109-038, DLBCL, 5/15/60 μg/m2/d, day 15): developed intention tremor | Neurological adverse events (patients with B-NHL; Patient 109-039, MCL, 5/15/60 μg/m2/d, day 17): developed tremor and slight speech disturbance | Treatment stop due to neurological/psychiatric adverse events (patients with B-NHL; Patient 135-001, DLBCL, day 4 after step to 60 μg/m2/d, too fast to intervene with dexamethasone): had to stop due to neurological/psychiatric adverse events | Neurological adverse events (patients with B-NHL; Patient 153-002, MCL, 5/15/60 μg/m2/d, day 4): developed slight speech problems | Treatment stop due to neurological adverse event (patients with B-NHL; Patient 153-002, MCL, day 22, paresis disappeared without intervention): had to stop treatment due to paresis | Dose leading to elimination of lymphoma target cells in blood (doses as low as) (lymphoma target cells; continuously administered over four weeks, non-Hodgkin's lymphoma patients): 0.005 milligrams per square meter per day | Patients with tumor regression (lymphoma target cells; dose level 0.06 milligrams/m^2/d): all seven patients | Dose level at which partial and complete tumor regressions were first observed (lymphoma target cells; [5]): 0.015 milligrams/m^2/d | Tumor cells in bone marrow and liver (lymphoma target cells; [5]): clearance of tumor cells from bone marrow and liver

C[C@]12CCC(=O)C=C1CC[C@@H]1[C@@H]2[C@@H](O)C[C@@]2(C)[C@H]1CC[C@]2(O)C(=O)CO [Hydrocortisone]
Biologic half-life [2]: 8-12 hrs

C[C@]12C=CC(=O)C=C1CC[C@@H]1[C@@H]2C(=O)C[C@@]2(C)[C@H]1CC[C@]2(O)C(=O)CO [Prednisone]
Biologic half-life [2]: 18-36 hrs
